From the NIST ThermoML archive (doi:10.1021/je034208m)
± gives the expanded uncertainty stated by the source.

Experiment: xn = mol fraction of the nth substance listed
Details: 101.33 kPa, Liquid; for speed of sound: Sing-around technique in a fixed-path interferometer

CCCC(C)O (centres undefined) [pentan-2-ol] + CCCCCCCC
Details	mass density, 293.15 K [kg/m3]	mass density, 298.15 K [kg/m3]	mass density, 303.15 K [kg/m3]	speed of sound, 293.15 K [m/s]	speed of sound, 298.15 K [m/s]	speed of sound, 303.15 K [m/s]	viscosity, 293.15 K [mPa·s]	viscosity, 298.15 K [mPa·s]	viscosity, 303.15 K [mPa·s]
x1 = 0.0509	705.58 ± 0.78	701.48 ± 0.79	697.35 ± 0.8	1190 ± 1	1170 ± 1	1149 ± 1	0.548 ± 0.01	0.517 ± 0.009	0.486 ± 0.009
x1 = 0.105	709.15 ± 0.78	705.03 ± 0.79	700.87 ± 0.8	1189 ± 1	1169 ± 1	1148 ± 1	0.566 ± 0.01	0.53 ± 0.01	0.498 ± 0.009
x1 = 0.1853	714.98 ± 0.79	710.84 ± 0.8	706.65 ± 0.8	1188 ± 1	1168 ± 1	1147 ± 1	0.598 ± 0.011	0.56 ± 0.01	0.525 ± 0.01
x1 = 0.2976	723.78 ± 0.8	719.63 ± 0.8	715.43 ± 0.81	1188 ± 1	1168 ± 1	1147 ± 1	0.658 ± 0.012	0.613 ± 0.011	0.572 ± 0.01
x1 = 0.3968	732.4 ± 0.81	728.24 ± 0.82	724.03 ± 0.82	1189 ± 2	1169 ± 2	1149 ± 2	0.732 ± 0.013	0.678 ± 0.012	0.629 ± 0.011
x1 = 0.4953	741.91 ± 0.83	737.73 ± 0.83	733.5 ± 0.84	1192 ± 2	1172 ± 2	1153 ± 2	0.841 ± 0.015	0.77 ± 0.014	0.709 ± 0.013
x1 = 0.5965	752.73 ± 0.85	748.53 ± 0.85	744.29 ± 0.86	1198 ± 2	1178 ± 2	1158 ± 2	1.008 ± 0.018	0.915 ± 0.016	0.826 ± 0.015
x1 = 0.6993	764.97 ± 0.88	760.76 ± 0.88	756.5 ± 0.88	1207 ± 2	1187 ± 2	1167 ± 2	1.296 ± 0.024	1.147 ± 0.021	1.022 ± 0.018
x1 = 0.7971	777.92 ± 0.91	773.74 ± 0.91	769.48 ± 0.91	1218 ± 2	1199 ± 2	1179 ± 2	1.727 ± 0.033	1.495 ± 0.027	1.307 ± 0.024
x1 = 0.8997	792.82 ± 0.95	788.69 ± 0.95	784.49 ± 0.95	1233 ± 2	1214 ± 2	1195 ± 2	2.531 ± 0.048	2.133 ± 0.04	1.821 ± 0.034
x1 = 0.9509	800.83 ± 0.97	796.75 ± 0.97	792.59 ± 0.97	1242 ± 2	1223 ± 2	1204 ± 2	3.19 ± 0.06	2.635 ± 0.05	2.215 ± 0.042
x1 = 1	809.04 ± 0.99	805.01 ± 0.99	800.9 ± 0.99	1250 ± 2	1232 ± 2	1214 ± 2	4.001 ± 0.075	3.273 ± 0.063	2.708 ± 0.053

CCCC(C)O (centres undefined) [pentan-2-ol] + CCCCCCCCCC
Details	mass density, 293.15 K [kg/m3]	mass density, 298.15 K [kg/m3]	mass density, 303.15 K [kg/m3]	speed of sound, 293.15 K [m/s]	speed of sound, 298.15 K [m/s]	speed of sound, 303.15 K [m/s]	viscosity, 293.15 K [mPa·s]	viscosity, 298.15 K [mPa·s]	viscosity, 303.15 K [mPa·s]
x1 = 0.0487	731.62 ± 0.8	727.76 ± 0.81	723.89 ± 0.81	1251 ± 1	1231 ± 1	1211 ± 1	0.914 ± 0.016	0.845 ± 0.015	0.779 ± 0.014
x1 = 0.0987	733.41 ± 0.81	729.53 ± 0.82	725.62 ± 0.82	1248 ± 2	1228 ± 2	1209 ± 2	0.912 ± 0.016	0.844 ± 0.015	0.782 ± 0.014
x1 = 0.2043	738.14 ± 0.82	734.23 ± 0.83	730.28 ± 0.83	1243 ± 2	1223 ± 2	1204 ± 2	0.956 ± 0.017	0.882 ± 0.016	0.81 ± 0.014
x1 = 0.2996	742.88 ± 0.84	738.94 ± 0.84	734.96 ± 0.85	1239 ± 2	1220 ± 2	1200 ± 2	0.989 ± 0.017	0.909 ± 0.016	0.842 ± 0.015
x1 = 0.4006	748.67 ± 0.85	744.7 ± 0.86	740.69 ± 0.86	1236 ± 2	1216 ± 2	1197 ± 2	1.084 ± 0.019	0.99 ± 0.018	0.883 ± 0.016
x1 = 0.5017	755.31 ± 0.87	751.3 ± 0.88	747.25 ± 0.88	1233 ± 2	1214 ± 2	1194 ± 2	1.149 ± 0.021	1.044 ± 0.019	0.952 ± 0.017
x1 = 0.6002	762.88 ± 0.89	758.83 ± 0.9	754.73 ± 0.9	1232 ± 2	1213 ± 2	1193 ± 2	1.3 ± 0.024	1.166 ± 0.021	1.053 ± 0.019
x1 = 0.6985	771.67 ± 0.91	767.58 ± 0.92	763.44 ± 0.92	1233 ± 2	1214 ± 2	1194 ± 2	1.531 ± 0.028	1.352 ± 0.025	1.201 ± 0.022
x1 = 0.7992	782.4 ± 0.94	778.29 ± 0.94	774.12 ± 0.94	1237 ± 2	1217 ± 2	1198 ± 2	1.914 ± 0.037	1.646 ± 0.03	1.439 ± 0.026
x1 = 0.8996	794.55 ± 0.96	790.46 ± 0.96	786.3 ± 0.96	1242 ± 2	1223 ± 2	1204 ± 2	2.626 ± 0.05	2.214 ± 0.042	1.888 ± 0.035
x1 = 0.95	801.5 ± 0.98	797.43 ± 0.98	793.28 ± 0.98	1246 ± 2	1228 ± 2	1209 ± 2	3.205 ± 0.061	2.651 ± 0.05	2.244 ± 0.042
x1 = 1	809.04 ± 0.99	805.01 ± 0.99	800.9 ± 0.99	1250 ± 2	1232 ± 2	1214 ± 2	4.001 ± 0.075	3.273 ± 0.063	2.708 ± 0.053

CCCC(C)O (centres undefined) [pentan-2-ol] + CCCCCCCCCCCC
Details	mass density, 293.15 K [kg/m3]	mass density, 298.15 K [kg/m3]	mass density, 303.15 K [kg/m3]	speed of sound, 293.15 K [m/s]	speed of sound, 298.15 K [m/s]	speed of sound, 303.15 K [m/s]	viscosity, 293.15 K [mPa·s]	viscosity, 298.15 K [mPa·s]	viscosity, 303.15 K [mPa·s]
x1 = 0.049	749.65 ± 0.78	745.96 ± 0.78	742.26 ± 0.79	1294 ± 2	1275 ± 1	1256 ± 1	1.443 ± 0.024	1.316 ± 0.022	1.206 ± 0.02
x1 = 0.0965	750.77 ± 0.78	747.03 ± 0.79	743.3 ± 0.79	1291 ± 2	1271 ± 2	1252 ± 2	1.441 ± 0.024	1.312 ± 0.022	1.201 ± 0.02
x1 = 0.2065	753.81 ± 0.8	750.05 ± 0.81	746.25 ± 0.81	1284 ± 2	1265 ± 2	1245 ± 2	1.438 ± 0.024	1.307 ± 0.022	1.194 ± 0.02
x1 = 0.2993	756.86 ± 0.82	753.06 ± 0.83	749.23 ± 0.83	1278 ± 2	1259 ± 2	1240 ± 2	1.465 ± 0.025	1.33 ± 0.023	1.211 ± 0.021
x1 = 0.3986	760.67 ± 0.84	756.84 ± 0.84	752.97 ± 0.85	1271 ± 2	1252 ± 2	1233 ± 2	1.499 ± 0.026	1.355 ± 0.024	1.231 ± 0.021
x1 = 0.5046	765.6 ± 0.86	761.71 ± 0.87	757.79 ± 0.87	1265 ± 2	1246 ± 2	1227 ± 2	1.563 ± 0.027	1.406 ± 0.025	1.27 ± 0.022
x1 = 0.5974	770.7 ± 0.88	766.77 ± 0.89	762.79 ± 0.89	1260 ± 2	1241 ± 2	1222 ± 2	1.667 ± 0.03	1.487 ± 0.026	1.338 ± 0.024
x1 = 0.7026	777.76 ± 0.91	773.76 ± 0.91	769.72 ± 0.91	1255 ± 2	1236 ± 2	1217 ± 2	1.865 ± 0.034	1.635 ± 0.03	1.447 ± 0.026
x1 = 0.8001	785.82 ± 0.93	781.77 ± 0.94	777.66 ± 0.94	1253 ± 2	1233 ± 2	1214 ± 2	2.205 ± 0.041	1.9 ± 0.035	1.652 ± 0.03
x1 = 0.8994	795.9 ± 0.96	791.84 ± 0.96	787.71 ± 0.96	1251 ± 2	1232 ± 2	1213 ± 2	2.786 ± 0.053	2.347 ± 0.044	1.998 ± 0.037
x1 = 0.9497	802.07 ± 0.98	798.02 ± 0.98	793.89 ± 0.98	1251 ± 2	1232 ± 2	1213 ± 2	3.267 ± 0.062	2.717 ± 0.051	2.284 ± 0.043
x1 = 1	809.04 ± 0.99	805 ± 0.99	800.9 ± 0.99	1250 ± 2	1232 ± 2	1214 ± 2	4.001 ± 0.075	3.273 ± 0.063	2.708 ± 0.053
